Reference: patent US20240131168A1, “NAPHTHALENE RING-CONTAINING COMPOUND, PHARMACEUTICAL COMPOSITION CONTAINING SAME, AND USE THEREOF” (JIANGSU YAHONG MEDITECH CO., LTD., priority 2021, published 2024)

Key:
Assay type in all cases: cell-based
MDA-MB-468 = assay: CellTiter-Glo cell proliferation inhibition, MDA-MB-468; details: Homo sapiens, 144 h, MDA-MB-468 (CTG), 6 days, starting concentration 10 μM; for inhibition at up to 10 µM: read-out: IH % max (maximum inhibition percentage)
MCF-7 ER^D538G = assay: CellTiter-Glo cell proliferation inhibition, MCF-7 ER^D538G; details: Homo sapiens, MCF7, 144 h, MCF-7 ER^D538G (CTG), 6 days, starting concentration 10 μM; for inhibition at up to 10 µM: read-out: IH % max (maximum inhibition percentage)
Method in brief: (§1)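 MCF-7, TamR-MCF-7, and CRISPR-edited MCF-7 ER D538G or Y537S cells were seeded at 1,000 or 2,000 cells/well in EMEM and cultured 24 h. They were then exposed to a 4-fold, 10-point series (top 10 µM before addition to wells) for 6 days or 72 h at 37 °C. CellTiter-Glo luminescence gave IC50 and maximum % inhibition.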

MCF-7 = assay: CellTiter-Glo cell proliferation inhibition, MCF-7 (Effect Example 2); details: Homo sapiens, MCF7, 144 h, MCF-7 (CTG), 6 days, starting concentration 10 μM; for inhibition at up to 10 µM: read-out: IH % max (maximum inhibition percentage)
Method in brief: as §1

TamR-MCF-7 = assay: CellTiter-Glo cell proliferation inhibition, TamR-MCF-7; details: 144 h, TamR-MCF-7 (CTG), 6 days, starting concentration 10 μM; for inhibition at up to 10 µM: read-out: IH % max (maximum inhibition percentage)
From the text: (§2) 1. Cell line • (1) Breast cancer cell lines and their culture media: • MCF-7 (ATCC; Cat. No.: HTB-22), a Luminal A breast cancer cell; • TamR-MCF-7 (ATCC; Cat. No.: CRL-3435), a breast cancer cell; • MCF-7 ER^D538G: a Luminal A breast cancer cell obtained by constructing MCF-7 (ATCC; Cat. No.: HTB-22) using CRISPR-Cas9 gene editing technology; • MCF-7 ER^Y537S: a Luminal A breast cancer cell obtained by constructing MCF-7 (ATCC; Cat. No.: HTB-22) using CRISPR-Cas9 gene editing technology; • MDA-MB-231: (manufacturer: Nanjing CoBioer Biosciences Co., Ltd.), a triple-negative breast cancer cell; • MDA-MB-468: (manufacturer: Nanjing CoBioer Biosciences Co., Ltd.), a triple-negative breast cancer cell.
(§3) Herein, the culture medium of MCF-7, TamR-MCF-7, MCF-7 ER^D538G, and MCF-7 ER^Y537S was EMEM; • the culture medium of MDA-MB-231 and MDA-MB-468 was DMEM.
(§4) 2. Reagents • Culture medium EMEM (Gibco, 1964507) • Culture medium DMEM (Gibco, 12430-054) • Fetal bovine serum (Gibco, 10091148) • Penicillin-streptomycin double antibody (Gibco, S110JV) • DPBS (Gibco, 14190-144) • CellTiter-Glo® assay kit (Promega, G7573) • Trypsin (0.25%) (Gibco, 25200-056) • DMSO (Sigma, D2650)
(§5) 3. Instruments • Biosafety cabinet (AIRTECH, BSC-1300A II) • Automated cell counter (Life Technologies, countess II) • Multifunctional microplate reader (Biotek, H1FM) • Orbital shaker (Hangzhou Allsheng Instruments Co., Ltd., OS-100) • XLFIT 5.3 (Inforstack Shanghai Co., Ltd.)
(§6) For this test method, the following experiments were performed in a biosafety cabinet, with the specific steps as follows: • (1) Cells were inoculated in a 96-well plate. One day later, the previous culture medium was poured off, 5 mL of DPBS was added to wash the cells, and then DPBS was pipetted and discarded. An appropriate amount of trypsin was then added. The plate was digested in a 37° C., 5% CO2 cell incubator for about 2 to 5 minutes and then taken out. Anew corresponding culture medium was added, and pipetted up and down to resuspend the cells evenly. The cells were then counted using an automated cell counter. • (2) Each cell was inoculated in columns 1 to 11 of a 96-well plate (Corning, Cat. No.: 3610) at a density of 1,000 or 2,000 cells per well in 100 μL of culture medium, and 100 μL of the corresponding culture medium without cells was added to the wells in column 12. The plate was then placed in a 37° C., 5% CO2 incubator for 24 hours. • (3) The compound of the present disclosure and the control drug fulvestrant (Selleck; Cat. No.: S1191) were then 4-fold serially diluted to 10 dose points starting at 10 μM. 10 μL of the serially diluted compound was pipetted and added to 100 μL of cells in columns 1 to 10, and 10 μL of the corresponding culture medium containing 0.33 v % DMSO was added to both columns 11 and 12. The plate was incubated in a 37° C., 5% CO2 incubator for 6 days or 72 hours (Note: column 11 was used as a MAX well with cells but without compound; column 12 was used as a MIN well without cells […]). • (4) The cell viability detection reagent in the CellTiter-Glo® assay kit was then added to the 96-well plate at 50 μL per well according to the instructions, and shaken on an orbital shaker in the dark for 5 to 10 minutes. The cell viability was then measured using a multifunctional microplate reader. Finally, the inhibition of cell proliferation by the compound of the present disclosure was plotted by XLFIT software, and the IC50 value (half inhibitory concentration) and the IH % max (maximum inhibition percentage) of the compound of the present disclosure were calculated.

MDA-MB-231 = assay: CellTiter-Glo cell proliferation inhibition, MDA-MB-231; details: Homo sapiens, 144 h, MDA-MB-231 (CTG), 6 days, starting concentration 10 μM; for inhibition at up to 10 µM: read-out: IH % max (maximum inhibition percentage)
From the text: as §2, §3, §4, §5, §6
Compounds D64 to D69 were tested for MDA-MB-231 (CTG) and MDA-MB-468 (CTG) with an incubation time of 72 hours in the incubator.

MCF-7 ER^Y537S = assay: CellTiter-Glo cell proliferation inhibition, MCF-7 ER^Y537S; details: Homo sapiens, MCF7, 144 h, MCF-7 ER^Y537S (CTG), 6 days, starting concentration 10 μM; for inhibition at up to 10 µM: read-out: IH % max (maximum inhibition percentage)
From the text: as §2, §3, §4, §5, §6

With `CN(CCOCCN1CCN(c2ccc3c(c2)CN(C2CCC(=O)NC2=O)C3=O)CC1)CCOc1ccc(Oc2c(-c3ccc(S(C)(=O)=O)cc3)ccc3cc(O)ccc23)cc1` (centres unmarked) [Compound D10, 3-(5-(4-(2-(2-((2-(4-((6-hydroxy-2-(4-(methylsulfonyl)phenyl)naphthalen-1-yl)oxy)phenoxy)ethyl)methylamino)ethoxy)ethyl)piperazin-1-yl)-1-oxoisoindolin-2-yl)piperidine-2,6-dione] the inhibition at up to 10 µM (MDA-MB-468) was 68%, the inhibition at up to 10 µM (MCF-7 ER^D538G) was 67% and the inhibition at up to 10 µM (MCF-7) was 40%. The inhibition at up to 10 µM (TamR-MCF-7) was 36%, the inhibition at up to 10 µM (MDA-MB-231) was 38% and the inhibition at up to 10 µM (MCF-7 ER^Y537S) was 54%.

With `CS(=O)(=O)c1ccc(-c2ccc3cc(O)ccc3c2Oc2ccc(OCCN3CCN(c4ccc5c(c4)CN(C4CCC(=O)NC4=O)C5=O)CC3)cc2)cc1` (centres unmarked) [Compound D2, 3-(5-(4-(2-(4-((6-hydroxy-2-(4-(methylsulfonyl)phenyl)naphthalen-1-yl)oxy)phenoxy)ethyl)piperazin-1-yl)-1-oxoisoindolin-2-yl)piperidine-2,6-dione] the IC50 (MDA-MB-468) was 0.0058 µM, the inhibition at up to 10 µM (MDA-MB-468) was 99% and the IC50 (MCF-7 ER^D538G) was 0.0884 µM. It also gave an inhibition at up to 10 µM (MCF-7 ER^D538G) of 93%, an IC50 (MCF-7) of 0.0277 µM and an inhibition at up to 10 µM (MCF-7) of 100%. The IC50 (TamR-MCF-7) was 0.0374 µM, the inhibition at up to 10 µM (TamR-MCF-7) was 94% and the IC50 (MDA-MB-231) was 0.0051 µM. It also gave an inhibition at up to 10 µM (MDA-MB-231) of 100%, an IC50 (MCF-7 ER^Y537S) of 0.968 µM and an inhibition at up to 10 µM (MCF-7 ER^Y537S) of 80%.

With `CCN(CCOc1ccc(Oc2c(-c3ccc(S(C)(=O)=O)cc3)ccc3cc(O)ccc23)cc1)C(=O)c1ccc(CCC2CCN(C3CCN(c4cccc5c4C(=O)N(C4CCC(=O)NC4=O)C5=O)CC3)CC2)cc1` (centres unmarked) [Compound D33, 4-(2-(1′-(2-(2,6-dioxopiperidin-3-yl)-1,3-dioxoisoindolin-4-yl)-[1,4′-bipiperidin]-4-yl)ethyl)-N-ethyl-N-(2-(4-((6-hydroxy-2-(4-(methylsulfonyl)phenyl)naphthalen-1-yl)oxy)phenoxy)ethyl)benzamide] the inhibition at up to 10 µM (MDA-MB-468) was 94%, the IC50 (MCF-7 ER^D538G) was 0.288 µM and the inhibition at up to 10 µM (MCF-7 ER^D538G) was 92%. The inhibition at up to 10 µM (MCF-7) was 45%, the inhibition at up to 10 µM (TamR-MCF-7) was 45% and the inhibition at up to 10 µM (MDA-MB-231) was 57%. It also gave an inhibition at up to 10 µM (MCF-7 ER^Y537S) of 76%.

`CCN(CCOCCOCCN1CCN(c2ccc3c(c2)C(=O)N(C2CCC(=O)NC2=O)C3)CC1)CCOc1ccc(Oc2c(-c3ccc(S(C)(=O)=O)cc3)ccc3cc(O)ccc23)cc1` (centres unmarked) [Compound D49] was tested, and the inhibition at up to 10 µM (MDA-MB-468) was 99%, the IC50 (MCF-7 ER^D538G) was 0.202 µM and the inhibition at up to 10 µM (MCF-7 ER^D538G) was 96%. The inhibition at up to 10 µM (MCF-7) was 42%, the inhibition at up to 10 µM (TamR-MCF-7) was 42% and the inhibition at up to 10 µM (MDA-MB-231) was 97%. For the same compound, the inhibition at up to 10 µM (MCF-7 ER^Y537S) was 86%.

For `CCN(CCOCCOc1ccc2c(c1)C(=O)N(C1CCC(=O)NC1=O)C2=O)CCOc1ccc(Oc2c(-c3ccc(S(C)(=O)=O)cc3)ccc3cc(O)ccc23)cc1` (centres unmarked) [Compound D23, 2-(2,6-dioxopiperidin-3-yl)-5-(2-(2-(ethyl(2-(4-((6-hydroxy-2-(4-(methylsulfonyl)phenyl)naphthalen-1-yl)oxy)phenoxy)ethyl)amino)ethoxy)ethoxy)isoindoline-1,3-dione], the inhibition at up to 10 µM (MDA-MB-468) was 79%, the IC50 (MCF-7 ER^D538G) was 0.23 µM and the inhibition at up to 10 µM (MCF-7 ER^D538G) was 94%. For the same compound, the inhibition at up to 10 µM (MCF-7) was 73%, the inhibition at up to 10 µM (TamR-MCF-7) was 64% and the inhibition at up to 10 µM (MDA-MB-231) was 100%. For the same compound, the inhibition at up to 10 µM (MCF-7 ER^Y537S) was 96%.

Work on `CCN(CCNc1cccc2c1CN(C1CCC(=O)NC1=O)C2=O)CCOc1ccc(Oc2c(-c3ccc(S(C)(=O)=O)cc3)ccc3cc(O)ccc23)cc1` (centres unmarked) [Compound D17, 3-(4-((2-(ethyl(2-(4-((6-hydroxy-2-(4-(methylsulfonyl)phenyl)naphthalen-1-yl)oxy)phenoxy)ethyl)amino)ethyl)amino)-1-oxoisoindolin-2-yl)piperidine-2,6-dione] yielded an inhibition at up to 10 µM (MCF-7 ER^D538G) of 86%, an inhibition at up to 10 µM (MCF-7) of 58% and an inhibition at up to 10 µM (TamR-MCF-7) of 39%. It also gave an inhibition at up to 10 µM (MDA-MB-231) of 87% and an inhibition at up to 10 µM (MCF-7 ER^Y537S) of 77%.

Compound `CCN(CCOCCOCC(=O)N1CCN(c2cccc3c2CN(C2CCC(=O)NC2=O)C3=O)CC1)CCOc1ccc(Oc2c(-c3ccc(S(C)(=O)=O)cc3)ccc3cc(O)ccc23)cc1` (centres unmarked) [Compound D47] has an inhibition at up to 10 µM (MDA-MB-468) of 94%, an IC50 (MCF-7 ER^D538G) of 0.83 µM and an inhibition at up to 10 µM (MCF-7 ER^D538G) of 89%. The inhibition at up to 10 µM (MCF-7) was 31%, the inhibition at up to 10 µM (MDA-MB-231) was 83% and the inhibition at up to 10 µM (MCF-7 ER^Y537S) was 73%.

With `C[C@@H]1CN(CCOCC(=O)Nc2cccc3c2CN(C2CCC(=O)NC2=O)C3=O)[C@@H](C)CN1CCOc1ccc(Oc2c(-c3ccc(S(C)(=O)=O)cc3)ccc3cc(O)ccc23)cc1` (stereo partly drawn) [Compound D25, N-(2-(2,6-dioxopiperidin-3-yl)-1-oxoisoindolin-4-yl)-2-(2-((2S,5R)-4-(2-(4-((6-hydroxy-2-(4-(methylsulfonyl)phenyl)naphthalen-1-yl)oxy)phenoxy)ethyl)-2,5-dimethylpiperazin-1-yl)ethoxy)acetamide] the inhibition at up to 10 µM (MDA-MB-468) was 96%, the inhibition at up to 10 µM (MCF-7 ER^D538G) was 86% and the inhibition at up to 10 µM (MCF-7) was 62%. The inhibition at up to 10 µM (MDA-MB-231) was 53% and the inhibition at up to 10 µM (MCF-7 ER^Y537S) was 59%.

`CCN(CCOCCOc1cccc2c1C(=O)N(C1CCC(=O)NC1=O)C2=O)CCOc1ccc(Oc2c(-c3ccc(S(C)(=O)=O)cc3)ccc3cc(O)ccc23)cc1` (centres unmarked) [Compound D18, 2-(2,6-dioxopiperidin-3-yl)-4-(2-(2-(ethyl(2-(4-((6-hydroxy-2-(4-(methylsulfonyl)phenyl)naphthalen-1-yl)oxy)phenoxy)ethyl)amino)ethoxy)ethoxy)isoindoline-1,3-dione] was tested, and the inhibition at up to 10 µM (MCF-7 ER^D538G) was 81%, the inhibition at up to 10 µM (MCF-7) was 39% and the inhibition at up to 10 µM (MDA-MB-231) was 41%. For the same compound, the inhibition at up to 10 µM (MCF-7 ER^Y537S) was 67%.
